Where two headings read alike, the source gives them in different places.
Assays:
[1] = target: protein kinase A (PKA) (Bos taurus, UniProt P00517); test: PKA-inhibiting activity measuring method (Kuo et al.); type: biochemical; conditions: crude enzyme partially purified from calf heart
Description: (2) Method for Measuring PKA-inhibiting Activity
To measure the PKA-inhibiting activity of a protein kinase inhibitor, referred to is the Kuo et al's method (see Biochemistry, 64, 1349, 1969).
Precisely, 10 μl of a sample to be tested for determining its activity is added to 250 μl of a solution comprising 5 μmols of Tris-HCl buffer (pH 6.8), 2.5 μmols of magnesium acetate, 100 μg of histone Type IIS (produced by Sigma Co.), 0.25 nmols of c-AMP and 200 μg of a crude enzyme (as partially purified from a calf heart according to the Kuo et al's method), and incubated therein at 30° C. for 3 minutes.
After the completion of the incubation, 1.25 nmols of [g-^32P]ATP (from 5×10^3 to 10×10^3 cpm/nmol) is added to the system, and phosphorylation reaction is carried out at 30° C. for 3 minutes, and thereafter the reaction is terminated by adding 25% trichloroacetic acid thereto.
The resulting reaction mixture is filtrated through a cellulose acetate membrane (pore size: 0.45 μm) (produced by Toyo Filter Co.), and the membrane is washed four times with 5% trichloroacetic acid, and thereafter the radioactivity of the residue remained on the membrane is measured to be a value of the sample.
On the other hand, the same process as described above is repeated without adding the sample to the system, and the radioactivity is obtained to be a control value.

[2] = target: T1, protein kinase C (PKC); test: PKC-inhibiting activity measuring method (Kikkawa et al.); type: biochemical, rat; conditions: crude enzyme partially purified from rat brain
T1 construct: PKC-IC50; other: crude enzyme partially purified from rat brain
Description: (1) Method for Measuring PKC-inhibiting Activity
Precisely, 10 μl of a sample to be tested for determining its activity is added to 250 μl of a solution comprising 2.5 μmols of magnesium acetate, 50 μg of histone Type IIIS (produced by Sigma Co.), 20 μg of phosphatidylserine, 0.8 μg of diolein, 25 μmols of calcium chloride, 5 μg of a crude enzyme (as partially purified from a rat brain according to the Kikkawa et al's method) and 5 μmols of Tris-HCl buffer (pH 7.5), and incubated therein at 30° C. for 3 minutes.

[3] = system: protein kinase C (PKC); test: as above; type: biochemical, rat; conditions: ratio, selectivity PKC over PKA
[4] = system: Mouse hair-follicle cells; test: Hair growth promoting effect in mouse hair-follicle cell culture (Neutral Red); type: cell-based; conditions: for Relative Degree of Cell Growth, vehicled on the degree of cell growth of 100 in Control: 5 days
Description: Mouse hair-follicle cells were cultivated and collected, according to the modified method of the Tanigai et al's method (see Archives of Dermatological Research, 284, 290–296, 1992) while suitably modifying the method.
That is, the skin was peeled from the back of a 4-day age C3H mouse (bought from Nippon Charles River Co.), and processed with an MEM (Minimum Essential Medium, Eagle) containing 500 units/ml Disperse (produced by Godo Shusei Co.) and 5% FCS, at 4° C. for 16 hours.
The epidermis was removed from said skin sample, and the resulting dermis layer was processed with a DMEM (Dulbecco's Modified Eagle Medium) containing 0.25% collagenase N-2 (produced by Nitta Gelatin Co.) and 10% FCS, at 37° C. for 1 hours, to prepare a dermis suspension.
This dermis suspension was filtrated through a 212-micron nylon mesh (produced by Nippon Rikagaku Kikai KK), and the resulting filtrate was centrifuged at 1,000 rpm for 5 minutes to obtain hair-follicle tissue-containing pellets.
The resulting pellets were suspended in a Ca-Mg-free PBS (Dulbecco's Phosphate-Buffered Saline), using a pipette, and then statically left as it was for 15 minutes, whereby the hair-follicle tissue was precipitated.
The thus-obtained hair-follicle tissue was repeatedly processed for a total of three times according to the same process as above comprising the addition of a Ca-Mg-free PBS, the suspension with a pipette, and the precipitation for 15 minutes.
The hair-follicle tissue thus obtained finally was processed with 0.1% EDTA-0.25% trypsin (produced by Gibco Co.) at 37° C. for 5 minutes, to which was then added a DMEM containing 10% FCS. Thus was prepared herein a hair-follicle tissue cell suspension comprising 3×10^5 cells/ml.
This hair-follicle tissue cell suspension was pipetted into a 24-well collagen-coated plate (produced by Iwaki Glass Co.) in an amount of 1 ml/well, and cultivated at 37° C. in 5% CO2 for 24 hours.
The resulting culture was then subjected to medium exchange with an MCDB153 medium (produced by Kyokuto Pharmaceutical Co.) containing 5 mg/liter insulin from bovine (produced by Sigma Co.), 5 μg/liter mouse EGF (produced by Takara Shuzo Co.), 40 mg/liter bovine pituitary extract (produced by Kyokuto Pharmaceutical Co.), 10 mg/liter human transferrin (produced by Sigma Co.), 0.4 mg/liter hydrocortisone (produced by Sigma Co.), 0.63 μg/liter progesterone (produced by Collaborative Research Co.), 14 mg/liter O-phosphoethanolamine (produced by Sigma Co.), 6.1 mg/liter ethanolamine (produced by Sigma Co.), 50 U/ml penicillin (produced by Wako Co.), 50 μg/ml streptomycin (produced by Wako Co.), and an DMSO solution comprising a PKC inhibitor of the invention (this was added in an amount of 1/100 by volume relative to the medium), and then further cultivated at 37° C. in 5% CO2 for 5 days. During the incubation, the medium was exchanged with a fresh one every other day.
As the control, the cell culture was cultivated in the same manner as above, except that only DMSO of 1/100 by volume relative to the medium was added to the medium in place of the PKC inhibitor-containing DMSO solution.
To determine the degree of cell growth, referred to herein was a known method of using Neutral Red (see Journal of Tissue Culture Method, 9, 1, 7–9, 1984). […]
The absorbance of the extract at 540 nm was measured, from which was obtained the degree of growth of the cells.

[5] = target: protein kinase A (PKA); conditions: Excerpt from BIO/TECHNOLOGY, 8, 732, 1990; cited from earlier work
[6] = system: hair-follicle organ culture; conditions: British Journal of Dermatology, 133, 5, 686–693, 1995; cited from earlier work
[7] = target: protein kinase C (PKC); conditions: Excerpt from BIO/TECHNOLOGY, 8, 732, 1990, cited from earlier work

| Compound | IC50 [1] [µM] | IC50 [2] [µM] | PKA-IC50/PKC-IC50 [3] | Relative Degree of Cell Growth, vehicled on the degree of cell growth of 100 in Control ([4]; Concentration 10 μM) | IC50 [5] [µM] | effect on growth of mouse hair-follicle cells (in words) [4] | further results |
| --- | --- | --- | --- | --- | --- | --- | --- |
| CCCCCCCCCCCCCCCC(=O)OC(CC(=O)O)C[N+](C)(C)C.[Cl-] (racemic) [Palmitoyl-DL-carnitine Hydrochloride, palmitoyl-DL-carnitine hydrochloride] | > 300 | 100 | >3 | 170 |  |  |  |
| CC1CNCCN1S(=O)(=O)c1cccc2cnccc12 (stereo not shown) [Composition H-7, 1-(5-Isoquinolinylsulfonyl)-2-methylpiperazine] |  |  |  |  | 13 |  | effect on hair growth retardation by 12-O-tetragalloyl-phorbol-13-acetate (in words) [6]: release the hair growth-retarding activity; IC50 [7]: 15 µM; PKA-IC50/PKC-IC50 ([7]; ratio): 0.87 |
| COC(=O)[C@@]1(O)C[C@H]2O[C@]1(C)n1c3ccccc3c3c4c(c5c6ccccc6n2c5c31)C(=O)NC4 [Composition K252a] |  |  |  |  | 0.02 | inhibited the growth of mouse hair-follicle cells |  |
| CN[C@@H]1C[C@H]2O[C@@](C)([C@@H]1OC)n1c3ccccc3c3c4c(c5c6ccccc6n2c5c31)C(=O)NC4 [Staurosporine] |  |  |  |  |  | inhibited the growth of mouse hair-follicle cells |  |
| calphostin C | > 50 | 0.05 | >1000 |  |  |  | Relative Degree of Cell Growth, vehicled on the degree of cell growth of 100 in Control ([4]; Concentration 0.1 μM): 160 |
| polymyxin B sulfate | > 100 | 10 | >10 | 360 |  |  |  |

— patent US7033580B2, “Hair-growing agent” (priority 1996, dated 2006)
